Measured values taken from publication PMC12621019, “Restructuring Antiviral Quinazolinone Frameworks to Derive and Optimize Inhibitors of Chikungunya Virus” (ACS Medicinal Chemistry Letters, 2025).
In brackets after ≈: the same amount, converted by molar mass.

Experiments:
NHDF cells = assay: Cytotoxicity assay (CellTiter Glo) in NHDF cells; conditions: NHDF cells, 72 h, maximum 40 μM
[1] = Cytotoxicity assay (CellTiter Glo) in NHDF cells; conditions: human, CC50, NHDF cells, maximum 40 μM
[2] = test system: CHIKV (strain 181/25mKate); assay: microbe, parasite or virus in culture; assay type: cell-based; conditions: Chikungunya virus, NHDF; for log reduction at 10 µM: 72 h, read-out: titer redn, log
physchem = conditions: pH 7.4
[3] = Plasma protein binding (equilibrium dialysis); conditions: male, CD-1, mouse
[4] = Kinetic solubility determination; conditions: for solubility kinetic at 24 h: pH 7.4, aqueous buffer, kinetic from dmso stock
[5] = Liver microsomal stability; conditions: CD-1, mouse, microsomes
Mouse plasma stability = conditions: male, CD-1, mouse
[6] = Cytotoxicity in Vero E6 cells (live cell count, high-content imaging); conditions: African green monkey

Row | Compound | CC50 at 72 h [1] | log reduction at 10 µM [2] | also measured
1 | COc1c(F)cc(-n2c(C3CCCCN3)nc3cc(N4CCN(C(C)C)CC4)c(Cl)cc3c2=O)cc1F (racemic) [rac-1h] | > 40 µM | 1.3 | CC50 (NHDF cells; listed as racemic 1h): without observed cytotoxicity
2 | CC(C)N1CCN(c2cc3nc(C4CCCCN4)n(-c4ccc(Cl)cc4)c(=O)c3cc2Cl)CC1 (racemic) [rac-1x] | 20.9 µM | ~4 | logD (physchem): 2.3; fraction unbound at 4 h, 2 μM [3]: 0.033; solubility kinetic at 24 h [4]: 34.6 µM (≈ 17.3 µg/mL); half-life [5]: > 2.42 h; half-life (Mouse plasma stability): > 4.82 h
3 | COc1c(F)cc(-n2c([C@H]3CCCCN3)nc3cc(N4CCN(C(C)C)CC4)c(Cl)cc3c2=O)cc1F [(R)-1h] | ~19 µM | 4.1 | CC50 (NHDF cells): 18.6 µM; fraction unbound at 4 h, 2 μM [3]: 0.232; boost in aqueous solubility compared to rac-1x ([4]; PBS buffer, pH 7.4): 5 fold; solubility kinetic at 24 h [4]: 183 µM (≈ 97.4 µg/mL); EC50 ([2]; read-out: EC50 (titer reduction assay, dose response)): 0.86 µM; half-life [5]: > 2.42 h; half-life (Mouse plasma stability): > 4 h; CC50 at 20 h [6]: > 20 µM
4 | CC(C)N1CCN(c2cc3nc([C@@H]4CCCNC4)n(-c4ccc(F)cc4)c(=O)c3cc2Cl)CC1 [(R)-1u] | 23.8 µM | 2.1 | –
5 | CC(C)N1CCN(c2cc3nc([C@@H]4CCCNC4)n(-c4ccc(Cl)cc4)c(=O)c3cc2Cl)CC1 [(R)-1v] | 14.2 µM | 3.4 | –
6 | CC(C)N1CCN(c2cc3nc([C@@H]4CCCNC4)n(-c4cccc(Cl)c4)c(=O)c3cc2Cl)CC1 [(R)-1w] | 18 µM | 2.7 | –
7 | CC(C)N1CCN(c2cc3nc([C@H]4CCCCN4)n(-c4ccc(Cl)cc4)c(=O)c3cc2Cl)CC1 [(R)-1x] | 12 µM | 5.2 | –
8 | COc1c(F)cc(-n2c([C@@H]3CCCN(C)C3)nc3cc(N4CCN(C(C)C)CC4)c(Cl)cc3c2=O)cc1F [(R)-1y] | 23.6 µM | 1.3 | –
9 | COc1c(F)cc(-n2c([C@H]3CCCCN3C)nc3cc(N4CCN(C(C)C)CC4)c(Cl)cc3c2=O)cc1F [(R)-1z] | > 40 µM | 0.4 | –
10 | COc1c(F)cc(-n2c([C@@H]3CCCN3)nc3cc(N4CCN(C)CC4)c(F)cc3c2=O)cc1F [(S)-1a] | > 40 µM | 0.3 | –
11 | COc1c(F)cc(-n2c([C@@H]3CCCN3)nc3cc(N4CCN(C(C)C)CC4)c(F)cc3c2=O)cc1F [(S)-1b] | > 40 µM | 0.64 | –
12 | COc1c(F)cc(-n2c([C@@H]3CCCN3)nc3cc(N4CCN(C)CC4)c(Cl)cc3c2=O)cc1F [(S)-1c] | > 40 µM | 1 | –
13 | COc1c(F)cc(-n2c([C@@H]3CCCN3)nc3cc(N4CCN(C(C)C)CC4)c(Cl)cc3c2=O)cc1F [(S)-1d] | > 40 µM | 1.3 | –
14 | COc1c(F)cc(-n2c([C@@H]3CCCN3)nc3cc(N4CCNCC4)c(Cl)cc3c2=O)cc1F [(S)-1e] | 22.8 µM | 1.6 | –
15 | COc1c(F)cc(-n2c([C@@H]3CCN3)nc3cc(N4CCN(C(C)C)CC4)c(Cl)cc3c2=O)cc1F [(S)-1f] | > 40 µM | 0 | –
16 | COc1c(F)cc(-n2c([C@H]3CCCNC3)nc3cc(N4CCN(C(C)C)CC4)c(Cl)cc3c2=O)cc1F [(S)-1g] | 11.7 µM | 2.9 | –

Row | Compound | CC50 at 72 h [1] | log reduction at 10 µM [2] | also measured
17 | COc1c(F)cc(-n2c([C@@H]3CCCCN3)nc3cc(N4CCN(C(C)C)CC4)c(Cl)cc3c2=O)cc1F [(S)-1h] | 34.8 µM | 1.7 | –
18 | COc1c(F)cc(-n2c([C@H]3CCCNC3)nc3cc(N4CCN(C(C)(C)C)CC4)c(Cl)cc3c2=O)cc1F [(S)-1j] | 8.9 µM | ~3 | –
19 | COc1c(F)cc(-n2c([C@H]3CCCNC3)nc3cc(N4CCN(C5CCN(C)CC5)CC4)c(Cl)cc3c2=O)cc1F [(S)-1l] | 11.4 µM | 1.2 | –
20 | COc1c(F)cc(-n2c([C@H]3CCCNC3)nc3cc(N4CCN(C)CC4)c(Cl)cc3c2=O)cc1F [(S)-1m] | 24.8 µM | 1 | –
21 | COc1c(F)cc(-n2c([C@H]3CCCNC3)nc3cc(N4CCNCC4)c(Cl)cc3c2=O)cc1F [(S)-1n] | 13.7 µM | 0.8 | –
22 | COc1c(F)cc(-n2c([C@H]3CCCNC3)nc3cc(N4CCC(N5CCOCC5)CC4)c(Cl)cc3c2=O)cc1F [(S)-1o] | 30.1 µM | 0.3 | –
23 | COc1c(F)cc(-n2c([C@H]3CCCNC3)nc3cc(N4CCC(N5CCN(C)CC5)CC4)c(Cl)cc3c2=O)cc1F [(S)-1p] | 12.1 µM | 1.8 | –
24 | COc1c(F)cc(-n2c([C@H]3CCCNC3)nc3cc(N(C)CCN(C)C)c(Cl)cc3c2=O)cc1F [(S)-1q] | 16.3 µM | 1.2 | –
25 | CC(C)N1CCN(c2cc3nc([C@H]4CCCNC4)n(C)c(=O)c3cc2Cl)CC1 [(S)-1r] | > 40 µM | 0.7 | –
26 | CC(C)N1CCN(c2cc3nc([C@H]4CCCNC4)n(-c4ccccc4)c(=O)c3cc2Cl)CC1 [(S)-1s] | > 40 µM | 1 | –
27 | CC(C)N1CCN(c2cc3nc([C@H]4CCCNC4)n(-c4ccc(Cl)cc4)c(=O)c3cc2Cl)CC1 [(S)-1v] | 17.2 µM | 2 | –
28 | CC(C)N1CCN(c2cc3nc([C@H]4CCCNC4)n(-c4cccc(Cl)c4)c(=O)c3cc2Cl)CC1 [(S)-1w] | 14.8 µM | 2.6 | –
29 | CC(C)N1CCN(c2cc3nc([C@@H]4CCCCN4)n(-c4ccc(Cl)cc4)c(=O)c3cc2Cl)CC1 [(S)-1x] | 16.5 µM | 3.4 | –
30 | COc1c(F)cc(-n2c([C@H]3CCCN(C)C3)nc3cc(N4CCN(C(C)C)CC4)c(Cl)cc3c2=O)cc1F [(S)-1y] | 29.1 µM | 1.1 | –
31 | COc1c(F)cc(-n2c([C@@H]3CCCCN3C)nc3cc(N4CCN(C(C)C)CC4)c(Cl)cc3c2=O)cc1F [(S)-1z] | 36.5 µM | 0.5 | –
